Tested on: CYP706B1
Assay: (+)-d-cadinene hydroxylase activity assay, inhibitors and cofactor
Format: biochemical, Gossypium arboreum
Conditions: for sensitivity to inhibition: qualitative statement, taken as indication of a cytochrome P450
Experimental: The yeast Saccharomyces cerevisiae strain W(R), which overexpresses the yeast cytochrome P450 reductase when grow on galactose, and the expression vector pYeDP60 were provided by D. Pompon (Pompon et al (1996) Methods Enzymol. 272, 51-64). The cDNA of CYP706B1 was modified by PCR with a 5′-terminal primer 5ç-[…] (sense), in which a Kpn I site was introduced, and a 3′-terminal primer 5ç-[…] (reverse), in which a Sac I site was introduced. PCR was conducted on plasmid DNA by using Pyrobest™ DNA polymerase (TaKaRa). After digestion with the restriction enzymes, the fragment was inserted into pYeDP60. Plasmid DNA was introduced into yeast cells by a LiAc method, transformed yeast cells were then selected, cultured, and induced, and microsomes were prepared following a high density procedure (Pompon et al (1996) Methods Enzymol. 272, 51-64).
The (+)-d-cadinene hydroxylase activity assay was based on a published protocol for monoterpene P450 hydroxylases (Mihaliak et al. (1993) Methods Plant Biochem. 9, 261-279). The radioactive assay was conducted in […] of potassium phosphate buffer (50 mM, pH 7.4) containing 1 mM EDTA (pH 8.0), 0.4 M sucrose, 2 mM DTT, 0.1% BSA, 1 mM NADPH, 5 mM FAD, 5 mM FMN, 4 mM glucose-6-phosphate, 1 unit of glucose-6-phosphate dehydrogenase, […] ^3H-(+)-d-cadinene (32 mCi/mmol) and yeast microsomes (100^˜[…] protein). The reaction was started by adding the microsomes, incubated at 30° C. for 1 hr, and stopped by chilling on ice. The reaction mixture was extracted three times with […] hexane:ethyl acetate (1:1), the extract was filtered through a 0.2 g, 100^˜200 mesh silica gel column in a pasteur pipet, eluted with 1.5 mL hexane:ethyl acetate (1:1), and concentrated to ca […] with an argon stream. The entire sample was subjected to reversed phase HPLC on C18 silica (250×4.6 mm, […] particle diameter) with a gradient of 40:60 to 100:0 acetonitrile/water (v/v) over 60 min followed by 10 min of 100% acetonitrile, flow rate 1 mL/min. Tritium was detected by an on-line liquid scintillation counter (b-RAM, IN/US Systems, Inc., Tampa, Fla.). […]

Structure (SMILES)	sensitivity to inhibition	inhibition of the hydroxylase activity (reaction mixture treated with a slow stream of CO for about 2 min, yeast microsomes containing CYP706B1) [%]
[C-]#[O+] [CO, carbon monoxide]	sensitivity to inhibition	70
Clc1ccc(COC(Cn2ccnc2)c2ccc(Cl)cc2Cl)c(Cl)c1 (stereo not drawn) [miconazole]	sensitivity to inhibition	–

From patent publication US20020187538A1, “cDNA clone of (+)- delta-cadinene-8-hydroxylase gene from cotton plants” (priority 2001, published 2002)
